# Tests used:
# [1] = test system: HKB-11 lymphoma cells; experiment: ROS production, H2DCFDA assay; format: cell-based, human; conditions: 4 h
# Method: Briefly, HKB-11 lymphoma cells (2.5 × 10^5 cells/mL) were cultured in a 96-well plate, allowed to adhere overnight, and treated with 20 μM H2DCFDA for 45 min to assess ROS levels. The dye solution was removed, and cells were washed with 1× buffer. Next, the cells were treated with N (8000 μM), N (4000 μM), UB (500 μM), UB (250 μM), N/UB (3500 μM), N/UB (1750 μM), N/UB (5750 μM), N/UB (2875 μM), Dox (4 μM), and tert-butyl hydroperoxide (TBHP) (150 μM) and then incubated at 37 °C for 4 h. Finally, the plate was immediately read at Ex/Em = 485/535 nm using a microplate spectrophotometer (BMG CLARIOstar, VIC, Australia). The fold change in ROS production was determined relative to the untreated control (cells treated with the supplement buffer according to the manufacturer’s protocol).
# [2] = test system: HKB-11 lymphoma cells; experiment: Flow cytometry apoptosis profile, Annexin V-CF Blue / 7-AAD; format: cell-based, human; conditions: HKB-11, 4 µM, 24 h; p ≤ 0.0001
# Method: The HKB-11 cells were cultured in T75 cell culture flasks with an initial density of 1 × 10^6 cells per 10 mL at 37 °C in the presence of 5% CO2 for 24 h. The following day, the cell culture media was removed from each flask and replaced with fresh FBS-containing media. […] An FBS-containing medium was used as the untreated control. The flasks were then incubated at 37 °C with 5% CO2 for 24 h. Then, the cell culture media from each flask were collected. Subsequently, trypsin (0.25% w/v) was applied to the flasks for 4 min at 37 °C. The trypsin reaction was neutralised with an equal volume of 10% FBS serum-containing media, and the cells were combined with the previously collected media. The cell pellets were obtained by centrifuging at 500× g for 5 min at room temperature (RT). This procedure was repeated by suspending the cell pellets in 1 mL of PBS each time. The collected cell pellets from each treatment were immediately suspended in 500 μL of 1× binding buffer and gently mixed by pipetting. Annexin V-CF Blue (5 μL) and 7-AAD (5 μL) staining solutions were added to 100 μL of the cell suspension. The stained cells were incubated for 15 min in the dark at RT, after which 400 μL of a 1× assay buffer was added to each cell suspension. Subsequently, the cells were examined using a flow cytometer (Novocyte 3000, ACEA Biosciences Inc., San Diego, CA, USA), and data analysis and processing were performed using NovoExpress software (version 1.5.0, ACEA Biosciences Inc., CA, USA). In the initial step, the cells were gated on forward and side scatter modes to exclude cell aggregates and debris near the origin. The cells were then gated on dot plots, where Annexin V-CF in Pacific Blue was plotted against 7-AAD fluorescence in PerCP. Quadrants were positioned relative to the untreated control, indicating live cells ([…] and −7-AAD) appearing in the lower-left quadrant, early apoptotic cells (+Annexin V and −7-AAD) in the lower-right quadrant, late apoptotic cells (+Annexin V and +7-AAD) in the upper-right quadrant, and necrotic cells (−Annexin V and +7-AAD) in the upper-left quadrant. For statistical analyses and visualisation, the percentage data of cells in each quadrant after different treatments (n = 3) were exported to GraphPad Prism software (version 9.0, San Diego, CA, USA).
# [3] = test system: HKB-11 human lymphoma cells; experiment: Alamar Blue antiproliferative assay, HKB-11; format: cell-based; conditions: HKB-11, 72 h, single postbiotics, GraphPad Prism nonlinear regression; for IC50: read-out: IC50 (concentration required to inhibit 50% of cell growth)
# Method: The cell viability of the HKB-11, Hs 313.T, and HS-5 cells after treatment with different concentrations of the seven different postbiotics, including SCFA salts (magnesium acetate, sodium propionate, and sodium butyrate), UA and UB, purine nucleoside (inosine), and bacteriocin (N), was determined using the Alamar Blue assay as per the method described earlier. Briefly, 100 μL of cells was cultured in 96-well plates at a 3 × 10^5 cells/mL seeding density. After 24 h, the cells were treated with 16,000 µM of each postbiotic except for the urolithins, which were applied at 500 µM using a 1:2 serial dilution across a 10-point dose–response curve, followed by a 72 h incubation. A positive control using doxorubicin was prepared at a concentration of 4 μM, and an untreated control with 0.1% DMSO was added to every plate. At the end of the incubation period, the culture media were removed, and 100 μL of a 0.1 mg/mL Alamar Blue solution (resazurin, prepared as a stock solution at 1 mg/mL in freshly made PBS, followed by a 1:10 dilution with serum-free media) was added to each well. The fluorescence levels were assessed using a microplate spectrophotometer (BMG CLARIOstar, Mornington, VIC, Australia) with an excitation wavelength of 555 nm and emission measurement at 595 nm. The compounds were tested in triplicate, with the untreated control taken as 100% cell viability.
# Data were collected and managed using MS Office Excel and GraphPad Prism for statistical analyses and visualisation. Data collection and analyses were carried out in triplicate, and the outcomes were presented as the mean ± standard deviation. Statistical significance between the mean values was determined at p ≤ 0.05 employing a two-way ANOVA. Tukey and Dunnett’s tests were utilised within GraphPad Prism software to perform nonlinear regression and multiple comparisons. Furthermore, GraphPad Prism software computed the IC50 value (representing the drug concentration required to achieve a 50% cell growth inhibition). The experimental groups in the proteomics study were compared statistically using unpaired t-tests, assuming equal variances. Candidate proteins were selected based on an absolute log2 fold change ≥ 0.58 and a Q-value ≤ 0.05. Enrichment analysis was subsequently conducted using Ingenuity Pathway Analysis (IPA), applying a significance threshold of adjusted Q ≤ 0.05 to identify functionally enriched pathways, focusing on those with an absolute z-score of ≥1.
compound,measurement,setting,value
"COc1cccc2c1C(=O)c1c(O)c3c(c(O)c1C2=O)C[C@@](O)(C(=O)CO)C[C@@H]3O[C@H]1C[C@H](N)[C@H](O)[C@H](C)O1 [Dox, doxorubicin, reference compound]",ROS production (positive control),"[1]; HKB-11, 4 μM",induced high ROS production
same,Apoptosis induction (positive control),[2],significantly induced apoptosis
same,Necrotic cell death compared to the untreated control and other treatment groups,[2],markedly higher proportion of necrotic cell death
"O=c1[nH]cnc2c1ncn2[C@@H]1O[C@H](CO)[C@@H](O)[C@H]1O [Inosine, inosine]",IC50 (concentration required to inhibit 50% of cell growth),[3],could not be calculated
"CC(=O)[O-].CC(=O)[O-].[Mg+2] [Magnesium Acetate, magnesium acetate]",IC50 (concentration required to inhibit 50% of cell growth),[3],could not be calculated
"CCCC(=O)[O-].[Na+] [Sodium Butyrate, sodium butyrate]",IC50,[3],2020 µM
"CCC(=O)[O-].[Na+] [Sodium Propionate, sodium propionate]",IC50,[3],14600 µM
"CC(C)(C)OO [TBHP, tert-butyl hydroperoxide, reference compound]",ROS production (positive control),"[1]; HKB-11, 150 μM",induced high ROS production
"O=c1oc2cc(O)ccc2c2ccc(O)cc12 [UA, Urolithin A]",IC50,[3],384 µM
